Results on 3 compounds are retold here after patent US20090054481A1 (priority 2003, published 2009).

Series [1] in a line: Dissolution rate of micronized drug substance (background statement). Type of series: physicochemical. To be noted: agglomerating drug substance.
The conditions of series [2]: 25° C., cited from earlier work.
The conditions of series [3]: cited from earlier work.

Each structure is given as a SMILES string. Where a name gives a salt, the structure may show the parent alone.

In the case of `CC(C)(C)NC(=O)[C@@H]1C[C@@H]2CCCC[C@@H]2CN1C[C@@H](O)[C@H](Cc1ccccc1)NC(=O)[C@H](CC(N)=O)NC(=O)c1ccc2ccccc2n1` [Micronized saquinavir mesylate, saquinavir mesylate], the “dissolution rate (in words)” value in series [1] is on record as “slow dissolution rate”.
In the case of `CC(C)(C)NC(=O)[C@@H]1C[C@@H]2CCCC[C@@H]2CN1C[C@@H](O)[C@H](Cc1ccccc1)NC(=O)[C@H](CC(N)=O)NC(=O)c1ccc2ccccc2n1` [Saquinavir mesylate], the “solubility in simulated gastric fluid” value in series [2] (simulated gastric fluid) was 80 µg/mL. In addition, the “solubility in simulated intestinal fluid” value in series [2] (simulated intestinal fluid) is “practically insoluble”.
`CC(C)(C)NC(=O)[C@@H]1C[C@@H]2CCCC[C@@H]2CN1C[C@@H](O)[C@H](Cc1ccccc1)NC(=O)[C@H](CC(N)=O)NC(=O)c1ccc2ccccc2n1` [saquinavir]: the “Absolute bioavailability (average)” value in series [3] (8 healthy volunteers, single 600 mg dose (3×200 mg capsules) following a high fat breakfast, CV 73%) is listed as 4%. Besides, in series [3] (8 healthy volunteers, single 600 mg dose (3×200 mg capsules) following a high fat breakfast), the “Absolute bioavailability (range)” value was 1-9%. Further, the “24-hour AUC and Cmax after a higher calorie meal versus a lower calorie meal” value in series [3] (n=6, on average) is on record as “two times higher”.
